Measured values reported in article PMC3402541, “Guanidylation and Tail Effects in Cationic Antimicrobial Lipopeptoids” (PLoS ONE, 2012).
≈ marks a conversion by molar mass, not a printed value. Where “and” joins values, the source holds several entries; their conditions need not be identical. Equal entries are not always repeated.

Legend:
[1] = system: E. faecalis ATCC 29212; type: cell-based, Enterococcus faecalis; conditions: ATCC 29212, Mueller-Hinton broth, 24 hr, 37°C, without replication; for MIC E. faecalis in the presence of 4% bovine serum albumin: 4% BSA added, macrobroth dilution; for MIC E. faecalis: CLSI macrobroth dilution, 5 x 10^5 CFU/mL
Outline: (§1)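 CLSI macrobroth dilution with doubling dilutions in cation-adjusted Mueller-Hinton broth in glass tubes, inoculum about 5 × 10^5 CFU/mL. Incubation 24 hr at 37°C in ambient air before MIC reading. Single determinations, no replication.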

[2] = system: P.aeruginosa ATCC 27853; type: cell-based, Pseudomonas aeruginosa; conditions: ATCC 27853, Mueller-Hinton broth, 24 hr, 37°C, without replication; for MIC P.aeruginosa in the presence of 4% bovine serum albumin: 4% BSA added, macrobroth dilution; for MIC P.aeruginosa: CLSI macrobroth dilution, 5 x 10^5 CFU/mL
Outline: as §1

[3] = system: P.aeruginosa CAN-ICU 62308; type: cell-based, Pseudomonas aeruginosa; conditions: CAN-ICU 62308, Mueller-Hinton broth, 24 hr, 37°C, without replication; for MIC P.aeruginosa in the presence of 4% bovine serum albumin: 4% BSA added, macrobroth dilution; for MIC P.aeruginosa: CLSI macrobroth dilution, 5 x 10^5 CFU/mL
Outline: as §1

[4] = system: ovine erythrocytes; assay: Haemolytic assay; type: cell-based, sheep; conditions: ovine erythrocytes in Tris buffered saline, 30 minutes, absorbance of supernatant at 540 nm
Outline: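 Washed sheep erythrocytes in Tris-buffered saline exposed to compound (50 μg/mL–1 mg/mL; final 4.08 x 10^8 cells/mL) for 30 min. After centrifugation, supernatant absorbance at 540 nm gave % haemolysis; 0.5% ammonium chloride as positive control.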

[5] = system: S. maltophilia CAN-ICU 62584; type: cell-based, Stenotrophomonas maltophilia; conditions: CAN-ICU 62584, Mueller-Hinton broth, 24 hr, 37°C, without replication; for MIC S. maltophilia in the presence of 4% bovine serum albumin: 4% BSA added, macrobroth dilution; for MIC S. maltophilia: CLSI macrobroth dilution, 5 x 10^5 CFU/mL
Outline: as §1

[6] = system: MRSA ATCC 33592; type: cell-based, methicillin-resistant S. aureus; conditions: ATCC 33592, Mueller-Hinton broth, 24 hr, 37°C, without replication; for MIC MRSA in the presence of 4% bovine serum albumin: 4% BSA added, macrobroth dilution; for MIC MRSA: CLSI macrobroth dilution, 5 x 10^5 CFU/mL
Outline: as §1

[7] = system: E. faecium ATCC 27270; type: cell-based; conditions: ATCC 27270, Mueller-Hinton broth, 24 hr, 37°C, without replication; for MIC E. faecium in the presence of 4% bovine serum albumin: 4% BSA added, macrobroth dilution; for MIC E. faecium: CLSI macrobroth dilution, 5 x 10^5 CFU/mL
Outline: as §1

[8] = system: MSSE 81388 CANWARD 2008; type: cell-based, methicillin-susceptible S. epidermidis; conditions: 81388 CANWARD 2008, Mueller-Hinton broth, 24 hr, 37°C, without replication; for MIC MSSE in the presence of 4% bovine serum albumin: 4% BSA added, macrobroth dilution; for MIC MSSE: CLSI macrobroth dilution, 5 x 10^5 CFU/mL
Outline: as §1

[9] = system: E.coli CAN-ICU 61714; type: cell-based, Escherichia coli; conditions: CAN-ICU 61714, Mueller-Hinton broth, 24 hr, 37°C, without replication; for MIC E.coli in the presence of 4% bovine serum albumin: 4% BSA added, macrobroth dilution; for MIC E.coli: CLSI macrobroth dilution, 5 x 10^5 CFU/mL
Outline: as §1

[10] = system: E.coli CAN-ICU 63074; type: cell-based, Escherichia coli; conditions: CAN-ICU 63074, Mueller-Hinton broth, 24 hr, 37°C, without replication; for MIC E.coli in the presence of 4% bovine serum albumin: 4% BSA added, macrobroth dilution; for MIC E.coli: CLSI macrobroth dilution, 5 x 10^5 CFU/mL
Outline: as §1

[11] = system: E.coli ATCC 25922; type: cell-based, Escherichia coli; conditions: ATCC 25922, Mueller-Hinton broth, 24 hr, 37°C, without replication; for MIC E.coli in the presence of 4% bovine serum albumin: 4% BSA added, macrobroth dilution; for MIC E.coli: CLSI macrobroth dilution, 5 x 10^5 CFU/mL
Outline: as §1

[12] = system: K.pneumoniae ATCC 13883; type: cell-based, Klebsiella pneumoniae; conditions: ATCC 13883, Mueller-Hinton broth, 24 hr, 37°C, without replication; for MIC K.pneumoniae in the presence of 4% bovine serum albumin: 4% BSA added, macrobroth dilution; for MIC K.pneumoniae: CLSI macrobroth dilution, 5 x 10^5 CFU/mL
Outline: as §1

[13] = system: S.aureus ATCC 29213; type: cell-based, Staphylococcus aureus; conditions: ATCC 29213, Mueller-Hinton broth, 24 hr, 37°C, without replication; for MIC S.aureus in the presence of 4% bovine serum albumin: 4% BSA added, macrobroth dilution; for MIC S.aureus: CLSI macrobroth dilution, 5 x 10^5 CFU/mL
Outline: as §1

SMILES | MIC E. faecalis in the presence of 4% bovine serum albumin [1] | MIC E. faecalis [1] | MIC P.aeruginosa in the presence of 4% bovine serum albumin [2] | MIC P.aeruginosa [2] | MIC P.aeruginosa in the presence of 4% bovine serum albumin [3] | MIC P.aeruginosa [3] | Percent haemolysis at 100µg/mL of compound [4] | MIC S. maltophilia in the presence of 4% bovine serum albumin [5] | MIC S. maltophilia [5] | MIC MRSA in the presence of 4% bovine serum albumin [6] | MIC MRSA [6] | MIC E. faecium in the presence of 4% bovine serum albumin [7] | MIC E. faecium [7] | MIC MSSE in the presence of 4% bovine serum albumin [8] | MIC MSSE [8] | MIC E.coli in the presence of 4% bovine serum albumin [9] | MIC E.coli [9] | MIC E.coli in the presence of 4% bovine serum albumin [10] | MIC E.coli [10] | MIC E.coli in the presence of 4% bovine serum albumin [11] | also measured
CCCCCCCCCCCCCCCC[N+](C)(C)C.[Cl-] [CTAC, Cetyltrimethylammonium chloride, reference compound] | 32 µg/mL | 1 µg/mL | >512 µg/mL | 128 µg/mL | 512 µg/mL | 64 µg/mL | 77% and 77.05% | 512 µg/mL | 32 µg/mL | 32 µg/mL | 1 µg/mL | 64 µg/mL | 0.5 µg/mL | 16 µg/mL | 0.5 µg/mL | 512 µg/mL | 32 µg/mL | 512 µg/mL | 16 µg/mL | 512 µg/mL | MIC E.coli [11]: 16 µg/mL; MIC K.pneumoniae in the presence of 4% bovine serum albumin [12]: 512 µg/mL; MIC K.pneumoniae [12]: 16 µg/mL; MIC S.aureus in the presence of 4% bovine serum albumin [13]: 32 µg/mL; MIC S.aureus [13]: 1 µg/mL
NCCCCN(CC(N)=O)C(=O)CNC(=O)CN(CCCCN)C(=O)CCC(F)(F)C(F)(F)C(F)(F)C(F)(F)C(F)(F)C(F)(F)C(F)(F)C(F)(F)F [F11-NlysGNlys] | 256 µg/mL | 64 µg/mL (≈ 79.5 µM) | >512 µg/mL | 512 µg/mL (≈ 636 µM) | >512 µg/mL | 512 µg/mL (≈ 636 µM) | 4.84% | >512 µg/mL | >512 µg/mL | 256 µg/mL | 64 µg/mL (≈ 79.5 µM) | 256 µg/mL | 64 µg/mL (≈ 79.5 µM) | 128 µg/mL | 32 µg/mL (≈ 39.8 µM) | 512 µg/mL | 512 µg/mL (≈ 636 µM) | >512 µg/mL | 512 µg/mL (≈ 636 µM) | 512 µg/mL | MIC E.coli [11]: 512 µg/mL (≈ 636 µM); MIC K.pneumoniae in the presence of 4% bovine serum albumin [12]: >512 µg/mL; MIC K.pneumoniae [12]: >512 µg/mL; MIC S.aureus in the presence of 4% bovine serum albumin [13]: 256 µg/mL; MIC S.aureus [13]: 32 µg/mL (≈ 39.8 µM)
NCCCCN(CC(N)=O)C(=O)CN(CCCCN)C(=O)CN(CCCCN)C(=O)CCC(F)(F)C(F)(F)C(F)(F)C(F)(F)C(F)(F)C(F)(F)C(F)(F)C(F)(F)F [F11-NlysNlysNlys] | 512 µg/mL | 64 µg/mL (≈ 73.1 µM) | 512 µg/mL | 128 µg/mL (≈ 146 µM) | 512 µg/mL | 256 µg/mL (≈ 292 µM) | 8.13% | >512 µg/mL | >512 µg/mL | 256 µg/mL | 32 µg/mL (≈ 36.5 µM) | 256 µg/mL | 64 µg/mL (≈ 73.1 µM) | 128 µg/mL | 32 µg/mL (≈ 36.5 µM) | 256 µg/mL | 64 µg/mL (≈ 73.1 µM) | 512 µg/mL | 128 µg/mL (≈ 146 µM) | 256 µg/mL | MIC E.coli [11]: 64 µg/mL (≈ 73.1 µM); MIC K.pneumoniae in the presence of 4% bovine serum albumin [12]: >512 µg/mL; MIC K.pneumoniae [12]: >512 µg/mL; MIC S.aureus in the presence of 4% bovine serum albumin [13]: 128 µg/mL; MIC S.aureus [13]: 32 µg/mL (≈ 36.5 µM)
